Laboratory results reported in patent US9463174B2, “Pharmaceutical composition for the treatment of type-1 diabetes” (priority 2008, dated 2016).
Entries after “also recorded” stand apart in the source; their conditions may differ.

Columns and labels:
MLDS CD1 mice = experiment: Prevention of multiple-low-dose-streptozotocin (MLDS) induced diabetes by daily GABA injection; type: in vivo
Experimental: As shown in the FIG. 1, the diabetes induction by multiple-low-dose-streptozotocin (i.p. 40 mg/kg for four consecutive days, MLDS) in mice can be prevented by daily injection of GABA. The MLSD murine model is commonly used for study of T1D (Rossini A A et al, 1978 Nature. 276(5684):182-4; Harlan D M et al, 1995 Diabetes 44(7):816-23) in which the beta-cells are destroyed by the toxic streptozotocin that leads to insulin insufficiency. To certain extent, T-cell mediated beta-cell inflammation (insulitis) is found in the multiple-low-dose streptozotocin induced diabetic hyperglycemia. However, insulitis may not be necessary occurred in the hyperglycemic mice induced by one injection of streptozotocin of high dose (i.e. 200-250 mg/kg), as in the latter case the beta-cell are rapidly destroyed. […] GABA has no effect on the glucose tolerance in normal mice as determined by intraperitoneal glucose tolerance test (IPGTT) 7 days before STZ injection.
(§1) The techniques used for the in vivo and in vitro studies in this embodiment of the disclosure are also described. CD1 mice (Charles River Laboratories, St Constant, Canada), NOD mice and transgenic TCR NOD mice (Jackson Laboratory, USA) were housed under a controlled temperature and a 12-h light/12-h dark cycle in the St. Michael's Hospital Animal facility with free access to food (normal rodent chow) and water, except where noted. All procedures were conducted according to protocols and guidelines approved by the Canadian Council of Animal Care and the St. Michael's Hospital Animal Care committee. Mice were treated with GABA by daily intraperitoneal (i.p.) injection of 20·g GABA per mouse to reach ˜200 μM circulation concentration and PBS as control. The daily treatment is continuously conducted during 60-day experimental period. One wk after the GABA and PBS treatment, diabetes was induced in both groups by i.p.-injection of low-dose streptozotocin (STZ, Sigma Chemical Co., St. Louis, Mo. 40 mg/kg body weight) for 5 consecutive days. The development of hyperglycemia was monitored by measuring blood glucose from the tail vein every third day following STZ injections using an Ascensia ELITE® XL glucose meter. For some studies, overtly diabetic mice induced by STZ and without GABA treatment were divided into two groups: one group started receiving daily i.p. injection of 20·g GABA whereas other group received only PBS. The treatment was continued for 75 days. The handling of the NOD mice were similar to those CD1 mice except the STZ injection. The NOD mice have a susceptibility to spontaneous development of autoimmune T1D. The TCR transgenic 8.3-NOD mice have a markedly accelerated disease (J. Vergdaguer et al, 1997 J Exp Med. 186(10):1663-76).
Groups of mice were subject to a glucose tolerance test (IPGTT) before treatment (day 0), one, three, and five weeks after administration and the day prior termination. For IPGTT, mice were fasted overnight for 15 h, and were given 1.5 g glucose/kg body weight via i.p.-injection. Blood was drawn from the tail vein and blood glucose was measured at 0, 10, 20, 30, 60, 90, and 120 min after glucose administration.
Insulin tolerance test (ITT) was performed in non-fasting mice by i.p.-injection of 2.5 unit insulin/kg body weight. Blood was drawn from the tail vein and blood glucose levels were measured at 0, 20, 30, 40, 60, 90, and 120 min after insulin administration. Glucagon tolerance test (GTT) was performed in 15 hrs fasted mice: glucagon were i.p.-injected (50 ng/g body weight) and blood was drawn from the tail vein and blood glucose levels were measured at 0, 10, 20, 30, 60, 90, and 120 min after glucagon administration.
Mice were housed in metabolic cages prior to initiation of GABA and PBS treatment and before termination of experiments. Food intake, water consumption and urine output were measured. To determine the fat distribution, three intra-abdominal fat pads retroperitoneal, mesenteric and epididymal were dissected and weighed. […]

[1] = system: established diabetic hyperglycemic NOD mice; experiment: Treatment of established diabetes in NOD mice (GABA alone or GABA plus Ex4); type: in vivo
Experimental: as §1
Mice were housed in metabolic cages prior to initiation of GABA and PBS treatment and before termination of experiments. Food intake, water consumption and urine output were measured. To determine the fat distribution, three intra-abdominal fat pads retroperitoneal, mesenteric and epididymal were dissected and weighed. Subcutaneous fat was also analyzed.
All data are presented as mean±SEM. Statistic analysis was performed using Student's t-test or analysis of variance (ANOVA) with ‘n−1’ post hoc custom hypotheses tests, as appropriate, with the SAS software (Statistical Analysis Systems, Cary, N.C.) or the GraphPad Prism 3.0 program (GraphPad Software Inc., San Diego, Calif.). The incidence of diabetes was plotted using the Kaplan-Meier method and statistical comparisons made with the log-rank test. The significance of differences in insulitis scores was determined with the Chi-squared test. The differences between groups in the in vitro proliferation and cytokine release assays were determined by analysis of variance (ANOVA). Significance was assumed at p<0.05.

INS-1 cells = experiment: Insulin secretion from INS-1 cells; type: cell-based; settings: dose dependent
STC-1 cells = experiment: GLP-1 production and secretion in gut-derived cells (GLP-1 RIA); type: cell-based
Experimental: In these in vitro assays using GLP-1-secreting and/or insulin-secreting cells, it was shown that the production and secretion of GLP-1 in the gut-derived cells (STC-1) were modulated by GABA, and the production and release of GABA from the beta-cells were also modulated by GLP-1. The specificity of these assays was determined by including the GABAAR antagonists or GLP-1 receptor antagonist in the assays.
Effects of GABA on stimulation of GLP-1 secretion from gut-derived cell lines. The production and secretion of GLP-1 in the gut-derived cells (STC-1) are examined by GLP-1 RIA. The time and dose dependent effects of GABA on GLP-1 production and secretion are examined in the gut cell lines in the presence of various concentration of GABA in which the specificity is determined by including the GABAAR antagonists in the assay.

[2] = GABA treated vs non-treated MLDS-mice
[3] = GABA treated vs untreated MLDS-mice
[4] = GABA vs non-GABA treated MLDS-mice
[5] = pancreatic immunohistochemistry, vs non-treated MLDS-mice

With `NCCCC(=O)O` [GABA, gamma-aminobutyric acid] the “glucose tolerance in normal mice (IPGTT)” value (MLDS CD1 mice; 7 days before STZ injection) was “no effect”, the “glucose tolerance (IPGTT)” value (MLDS CD1 mice; [2]) was “significant improved glucose tolerance; also recorded: maintained close to normal glucose tolerance” and the “glucose tolerance, area under curve” value (MLDS CD1 mice; [2]) was “significantly improved”. The circulating insulin (MLDS CD1 mice; [3]) was “significantly elevated circulating insulin levels”, the “ratio of insulin to glucagon levels” value (MLDS CD1 mice; [3]) was “increased ratio of insulin to glucagon levels; also recorded: significantly increased insulin/glucagon ratio” and the serum glucagon levels (MLDS CD1 mice; [3]) was “reduced serum glucagon levels; also recorded: significantly reduced glucagon levels”. For the same molecule, the “circulating IL-12” value (MLDS CD1 mice; [4]) was “significantly reduced”, the “circulating INF-gamma” value (MLDS CD1 mice; [4]) was “significantly reduced” and the “circulating level of TNF-alpha” value (MLDS CD1 mice; [4]) was “significantly decreased”. The “circulating level of pro-inflammatory IL-1 (IL-1-beta)” value (MLDS CD1 mice; [4]) was “significantly decreased”, the “serum level of IL-6” value (MLDS CD1 mice; [4]) was “not different” and the “serum level of Th2 cytokine IL-10” value (MLDS CD1 mice; [4]) was “not different”. For the same molecule, the “diabetic symptoms such as polydipsia and polyuria” value (MLDS CD1 mice; MLDS mice, metabolic studies) was “significantly improved diabetic symptoms”, the diabetic sickness (MLDS CD1 mice; MLDS mice, throughout the feeding course) was “not found in any mouse” and the “glucagon tolerance (glucagon tolerance test)” value (MLDS CD1 mice; MLDS-mice) was “significantly improved glucagon tolerance; also recorded: largely improved”. The “improvement of glucagon intolerance, area under curve” value (MLDS CD1 mice; MLDS-mice) was “statistically significant”, the “insulin sensitivity (insulin tolerance test)” value (MLDS CD1 mice; MLDS-mice) was “does not alter the insulin sensitivity; also recorded: did not alter the insulin sensitivity” and the “insulitis scored by HE staining for infiltrated lymphocytes in the islets” value (MLDS CD1 mice; MLDS-mice) was “significant reduction of insulitis”. For the same molecule, the “number of GABA treated STZ mice that developed overt hyperglycemia” value (MLDS CD1 mice; after 7-day MLDS injection, control mice 8 of total 8) was “one”, the “development of diabetic hyperglycemia (blood glucose)” value (MLDS CD1 mice; daily i.p. GABA 20·g/mouse, MLDS CD1 mice, vs untreated) was “prevents development of diabetic hyperglycemia; also recorded: remarkably prevented development of hyperglycemia” and the alpha-cell mass (MLDS CD1 mice; [5]) was “significantly reduced alpha-cell mass”. For the same molecule, the beta-cell mass (MLDS CD1 mice; [5]) was “significantly reserved the beta-cell mass”, the “time for which lower blood glucose levels were maintained” value ([1]; GABA alone) was “about two” and the blood glucose levels ([1]; GABA vs PBS, after onset of hyperglycemia) was “significantly reduced blood glucose levels”. For the same molecule, the sickness ([1]; GABA-treated group) was “no obvious sickness was developed”, the “diabetic symptoms (metabolic studies)” value ([1]; GABA-treated vs PBS) was “significantly lessened” and the “reversal of diabetic hyperglycemia / remission” value ([1]; after onset of diabetic hyperglycemia, combination determined at two weeks after treatment) was “transient effect; also recorded: not able to achieve a full remission; also recorded: not effective in completely reversing diabetic hyperglycemia”. The incidence of diabetes ([1]; diabetes when blood glucose ≧12 mM, GABA 20·g mouse, Ex4 1 nmol/kg, therapies PBS, GABA alone, GABA plus Ex4) was “significantly lower”, the feces ([1]; established diabetic NOD mice) was “reduced” and the food intake ([1]; established diabetic NOD mice) was “reduced”. The urine ([1]; established diabetic NOD mice) was “reduced”, the water consumption ([1]; established diabetic NOD mice) was “reduced” and the “insulin secretion from INS-1 cells” value (INS-1 cells) was “stimulated insulin secretion; also recorded: dose-dependently increases insulin secretion”. For the same molecule, the “production and secretion of GLP-1 in gut-derived cells (STC-1)” value (STC-1 cells) was “modulated”.
